Test results reported in US9452980B2, “Substituted benzamides” (Hoffmann-La Roche Inc., priority 2009, dated 2016).
Counter-ions that a name gives are not always drawn. Like-named read-outs stand apart in the source and are kept apart here.

Columns and labels:
[1] = molecular target: rat TAAR1 (Rattus norvegicus (Rat), UniProt Q923Y9); experiment: Radioligand binding assay on rat TAAR1; settings: read-out: Ki (μM) rat
Procedure, shortened: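 Membranes from HEK293 cells stably expressing rat TAAR1, with Kd checked per batch by saturation. Competition with ³H-(S)-4-[(ethyl-phenyl-amino)-methyl]-4,5-dihydro-oxazol-2-ylamine, compounds 10 pM–10 μM in duplicate, 1 hr at 4 °C. Filtration then scintillation counting; nonspecific binding defined with 10 μM unlabeled ligand.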

[2] = molecular target: mouse TAAR1 (Mus musculus (Mouse), UniProt Q923Y8); experiment: Radioligand binding assay on mouse TAAR1; settings: read-out: Ki (μM) mouse
Sequence of mouse TAAR1 (Q923Y8 whole entry): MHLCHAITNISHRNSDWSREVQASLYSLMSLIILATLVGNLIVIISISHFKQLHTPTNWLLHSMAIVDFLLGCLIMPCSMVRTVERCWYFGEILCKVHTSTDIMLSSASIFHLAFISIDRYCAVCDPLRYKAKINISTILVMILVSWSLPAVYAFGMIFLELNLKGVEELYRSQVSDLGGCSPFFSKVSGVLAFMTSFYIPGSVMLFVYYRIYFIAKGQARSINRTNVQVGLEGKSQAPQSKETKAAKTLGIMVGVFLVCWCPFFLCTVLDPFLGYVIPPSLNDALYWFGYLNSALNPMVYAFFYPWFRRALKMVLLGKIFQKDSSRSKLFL
Procedure, shortened: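 Membranes were from HEK293 cells stably expressing mouse TAAR1. Compounds from 10 pM to 10 μM, in duplicate, competed with [3H]-(S)-4-[(ethyl-phenyl-amino)-methyl]-4,5-dihydro-oxazol-2-ylamine for 1 h at 4 °C. Nonspecific binding was defined with 10 μM unlabelled ligand, and bound radioactivity was read by filtration and scintillation.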

[3] = rat TAAR1, HEK-293 membranes, second value of cell mouse/rat
[4] = mouse TAAR1, HEK-293 membranes, first value of cell mouse/rat

Sequence of rat TAAR1 (Q923Y9 whole entry): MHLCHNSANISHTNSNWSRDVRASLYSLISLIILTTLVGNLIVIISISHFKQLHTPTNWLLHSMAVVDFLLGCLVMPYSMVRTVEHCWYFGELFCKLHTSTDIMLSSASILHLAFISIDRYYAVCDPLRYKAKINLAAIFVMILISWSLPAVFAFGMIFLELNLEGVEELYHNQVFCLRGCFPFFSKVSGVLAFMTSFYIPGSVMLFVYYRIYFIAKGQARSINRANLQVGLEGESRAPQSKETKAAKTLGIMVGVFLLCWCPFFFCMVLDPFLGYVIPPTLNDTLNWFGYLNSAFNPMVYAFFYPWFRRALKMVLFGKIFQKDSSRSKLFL

Structure (SMILES)	Ki [1, 3] [µM]	Ki [2, 4] [µM]	Ki [1] [µM]	Ki [2] [µM]
Cc1ccc(CNC(=O)Nc2ccc(C3CNCCO3)cc2)cc1 (racemic) [Example 306, (RS)-1-(4-Methylbenzyl)-3-(4-(morpholin-2-yl)phenyl)urea hydrochloride]	0.0038	0.0266	–	–
O=C(Nc1ccc(C2CNCCO2)cc1)NC1CCCCC1 (racemic) [Example 307, (RS)-1-cyclohexyl-3-(4-(morpholin-2-yl)phenyl)urea hydrochloride]	0.0305	0.0778	–	–
CSc1ccc(C(=O)Nc2ccc(C3CNCCO3)cc2)cc1 (stereo in doubt) [Example 267, (S)-4-(Methylthio)-N-(4-(morpholin-2-yl)phenyl)benzamide hydrochloride]	–	0.0476	0.0011	–
CN1CCN(c2ccc(NC(=O)Nc3ccc(Cl)c(Cl)c3)cc2)CC1 [Example 2, 1-(3,4-Dichloro-phenyl)-3-[4-(4-methyl-piperazin-1-yl)-phenyl]-urea]	0.001	–	–	0.0006
CN1CCN(c2ccc(NC(=O)Nc3ccc(-c4cnco4)cc3)cc2)CC1 [Example 4, 1-[4-(4-Methyl-piperazin-1-yl)-phenyl]-3-(4-oxazol-5-yl-phenyl)-urea]	0.0837	0.0189	–	–
O=C(Nc1ccc(C2CCNCC2)cc1)c1ccc(Cl)cc1 [Example 57, 4-Chloro-N-(4-piperidin-4-yl-phenyl)-benzamide hydrochloride]	0.0005	0.0055	–	–
O=C(Nc1ccc(N2CCNCC2)cc1)c1ccc(Cl)cc1 [Example 59, 4-Chloro-N-(4-piperazin-1-yl-phenyl)-benzamide hydrochloride]	0.0014	0.0256	–	–
O=C(Nc1ccc([C@@H]2CCCNC2)cc1)c1ccc(Cl)cc1 [Example 112, 4-Chloro-N—((S)-4-piperidin-3-yl-phenyl)-benzamide]	0.0018	0.211	–	–
O=C(Nc1ccc([C@H]2CCCNC2)cc1)c1ccc(Cl)cc1 [Example 113, 4-Chloro-N—((R)-4-piperidin-3-yl-phenyl)-benzamide]	0.004	0.0095	–	–
O=C(Nc1ccc([C@@H]2CNCCO2)cc1)c1ccc(Cl)cc1 [Example 143, 4-Chloro-N—((R)-4-morpholin-2-yl-phenyl)-benzamide hydrochloride]	–	–	0.0006	0.0054
O=C(Nc1ccc([C@H]2CNCCO2)cc1)c1ccc(Cl)cc1 [Example 144, 4-Chloro-N—((S)-4-morpholin-2-yl-phenyl)-benzamide hydrochloride]	–	–	0.0011	0.0188
O=C(Nc1ccc([C@H]2CCCNC2)cc1)c1ccc(Cl)c(Cl)c1 [Example 150, 3,4-Dichloro-N—((R)-4-piperidin-3-yl-phenyl)-benzamide hydrochloride]	0.0004	–	–	0.002
O=C(Nc1ccc([C@H]2CCCNC2)cc1)c1cccc(Cl)c1 [Example 151, (R)-3-Chloro-N-(4-(piperidin-3-yl)phenyl)benzamide hydrochloride]	0.0008	–	–	0.011
O=C(Nc1ccc([C@@H]2CCCNC2)cc1)c1ccc(Cl)c(Cl)c1 [Example 152, 3,4-Dichloro-N—((S)-4-piperidin-3-yl-phenyl)-benzamide hydrochloride]	0.0003	–	–	0.0086
O=C(Nc1ccc([C@@H]2CCCNC2)cc1)c1cccc(Cl)c1 [Example 153, (S)-3-Chloro-N-(4-(piperidin-3-yl)phenyl)benzamide hydrochloride]	0.0005	–	–	0.0715
O=C(Nc1ccc([C@H]2CCCNC2)cc1)c1ccc(Cl)nc1 [Example 161, (R)-6-Chloro-N-(4-(piperidin-3-yl)phenyl)nicotinamide hydrochloride]	0.0101	–	–	0.0403

Structure (SMILES)	Ki [1, 3] [µM]	Ki [2, 4] [µM]	Ki [1] [µM]	Ki [2] [µM]
O=C(Nc1ccc([C@@H]2CCCNC2)cc1)c1ccc(Cl)nc1 [Example 162, (S)-6-Chloro-N-(4-(piperidin-3-yl)phenyl)nicotinamide hydrochloride]	0.0092	–	–	0.231
O=C(Nc1ccc([C@H]2CCCNC2)cc1)c1ccc(Cl)cn1 [Example 167, (R)-5-Chloro-N-(4-(piperidin-3-yl)phenyl)picolinamide hydrochloride]	0.0048	–	–	0.0271
O=C(Nc1ccc([C@@H]2CCCNC2)cc1)c1ccc(Cl)cn1 [Example 168, (S)-5-Chloro-N-(4-(piperidin-3-yl)phenyl)picolinamide hydrochloride]	0.0026	–	–	0.608
Cc1ccc(C(=O)Nc2ccc([C@@H]3CNCCO3)cc2)cc1 [Example 195, (R)-4-Methyl-N-(4-(morpholin-2-yl)phenyl)benzamide hydrochloride]	0.0022	0.0135	–	–
Cc1ccc(C(=O)Nc2ccc([C@H]3CNCCO3)cc2)cc1 [Example 196, (S)-4-Methyl-N-(4-(morpholin-2-yl)phenyl)benzamide hydrochloride]	0.001	0.0524	–	–
COc1cc(C(=O)Nc2ccc([C@H]3CCCNC3)cc2)ccc1Cl [Example 200, (R)-4-Chloro-3-methoxy-N-(4-(piperidin-3-yl)phenyl)benzamide hydrochloride]	0.0022	0.0039	–	–
COc1cc(C(=O)Nc2ccc([C@@H]3CCCNC3)cc2)ccc1Cl [Example 201, (S)-4-Chloro-3-methoxy-N-(4-(piperidin-3-yl)phenyl)benzamide hydrochloride]	0.0022	0.113	–	–
COc1ccc(C(=O)Nc2ccc([C@H]3CCCNC3)cc2)cc1Cl [Example 202, (R)-3-Chloro-4-methoxy-N-(4-(piperidin-3-yl)phenyl)benzamide hydrochloride]	–	–	0.0015	0.0087
COc1ccc(C(=O)Nc2ccc([C@@H]3CCCNC3)cc2)cc1Cl [Example 203, (S)-3-Chloro-4-methoxy-N-(4-(piperidin-3-yl)phenyl)benzamide hydrochloride]	–	–	0.0014	0.0603
O=C(Nc1ccc([C@H]2CCNC2)cc1)c1ccc(OCC(F)(F)F)nc1 [Example 204, (R)—N-(4-(pyrrolidin-3-yl)phenyl)-6-(2,2,2-trifluoroethoxy)nicotinamide hydrochloride]	0.0043	0.005	–	–
O=C(Nc1ccc([C@@H]2CCNC2)cc1)c1ccc(OCC(F)(F)F)nc1 [Example 205, (S)—N-(4-(Pyrrolidin-3-yl)phenyl)-6-(2,2,2-trifluoroethoxy)nicotinamide hydrochloride]	0.0035	0.0034	–	–
O=C(Nc1ccc([C@@H]2CNCCO2)cc1)c1ccc(Cl)nc1 [Example 207, (R)-6-Chloro-N-(4-(morpholin-2-yl)phenyl)nicotinamide hydrochloride]	–	0.0525	0.0042	–
O=C(Nc1ccc([C@H]2CNCCO2)cc1)c1ccc(Cl)nc1 [Example 208, (S)-6-Chloro-N-(4-(morpholin-2-yl)phenyl)nicotinamide hydrochloride]	–	0.0762	0.0044	–
O=C(Nc1ccc([C@H]2CCCNC2)cc1)c1ccc(OCC(F)(F)F)nc1 [Example 223, (R)—N-(4-(Piperidin-3-yl)phenyl)-6-(2,2,2-trifluoroethoxy)nicotinamide hydrochloride]	–	0.0016	0.0018	–
O=C(Nc1ccc([C@@H]2CCCNC2)cc1)c1ccc(OCC(F)(F)F)nc1 [Example 224, (S)—N-(4-(Piperidin-3-yl)phenyl)-6-(2,2,2-trifluoroethoxy)nicotinamide hydrochloride]	–	0.051	0.0029	–
